The record followed here is patent US8829007B2 (priority 2009, dated 2014).

Bounds are passed on as bounds.

The first test deals with influenza A virus (A/PR/8/34). Put plainly: microbe, parasite or virus in culture. Type of test: cell-based. Conditions: Influenza A virus, PR/8, MDCK, MDCK cells infected with A/PR/8/34, cell protection (CPE); read-out: IC50 (mean all).
On to `OC1CCCC[C@@H]1CNc1nc(-c2c[nH]c3ncc(Cl)cc23)ncc1F` (stereo partly drawn) [Compound 12, (2R)-2-((2-(5-chloro-1H-pyrrolo[2,3-b]pyridin-3-yl)-5-fluoropyrimidin-4-ylamino)methyl)cyclohexanol], for which the IC50 is over 20 µM.
`OC1CCCCC1Nc1nc(-c2c[nH]c3ncc(Cl)cc23)ncc1F` (stereo not drawn) [Compound 13, 2-(2-(5-chloro-1H-pyrrolo[2,3-b]pyridin-3-yl)-5-fluoropyrimidin-4-ylamino)cyclohexanol]: the half-maximal inhibitory concentration (IC50) was under 5 µM.
Still for that read-out and setting: next, `CCOC(=O)CCCC(=O)N1CCC[C@@H](CNc2nc(-c3c[nH]c4ncc(Cl)cc34)ncc2F)C1` [Compound 19, (S)-ethyl 5-(3-((2-(5-chloro-1H-pyrrolo[2,3-b]pyridin-3-yl)-5-fluoropyrimidin-4-ylamino)methyl)piperidin-1-yl)-5-oxopentanoate]: over 20 µM; `CC(C)(C)NC(=O)N1CCC[C@@H](CNc2nc(-c3c[nH]c4ncc(Cl)cc34)ncc2F)C1` [Compound 20, (S)—N-tert-butyl-3-((2-(5-chloro-1H-pyrrolo[2,3-b]pyridin-3-3-yl)-5-fluoropyrimidin-4-ylamino)methyl)piperidine-1-carboxamide]: 5 to 20 µM.
For `COCCOC(=O)N1CCC[C@@H](CNc2nc(-c3c[nH]c4ncc(Cl)cc34)ncc2F)C1` [Compound 24, (S)-2-methoxyethyl 3-((2-(5-chloro-1H-pyrrolo[2,3-b]pyridin-3-yl)-5-fluoropyrimidin-4-ylamino)methyl)piperidine-1-carboxylate], the IC50 is over 20 µM.
Take `CNC(=O)N1CCC[C@@H](CNc2nc(-c3c[nH]c4ncc(Cl)cc34)ncc2F)C1` [Compound 29, (S)-3-((2-(5-chloro-1H-pyrrolo[2,3-b]pyridin-3-yl)-5-fluoropyrimidin-4-ylamino)methyl)-N-methylpiperidine-1-carboxamide]: the half-inhibitory concentration (IC50) fell in the range of 5 to 20 µM.
In the case of `CC(C)C(=O)N1CCC[C@@H](CNc2nc(-c3c[nH]c4ncc(Cl)cc34)ncc2F)C1` [Compound 34, (S)-1-(3-((2-(5-chloro-1H-pyrrolo[2,3-b]pyridin-3-yl)-5-fluoropyrimidin-4-ylamino)methyl)piperidin-1-yl)-2-methylpropan-1-one], the IC50 was under 5 µM.
On to `CC(C)OC(=O)N1CCC[C@@H](CNc2nc(-c3c[nH]c4ncc(Cl)cc34)ncc2F)C1` [Compound 35, (S)-isopropyl 3-((2-(5-chloro-1H-pyrrolo[2,3-b]pyridin-3-yl)-5-fluoropyrimidin-4-ylamino)methyl)piperidine-1-carboxylate], for which the IC50 was over 20 µM.
The same measure, in the same setting: the same measure for `O=C(Nc1cccnc1)N1CCC[C@@H](CNc2nc(-c3c[nH]c4ncc(Cl)cc34)ncc2F)C1` [Compound 40, (S)-3-((2-(5-chloro-1H-pyrrolo[2,3-b]pyridin-3-yl)-5-fluoropyrimidin-4-ylamino)methyl)-N-(pyridin-3-yl)piperidine-1-carboxamide]: over 20 µM.
Consider `CC(C)(C)CC(=O)N1CCC[C@@H](CNc2nc(-c3c[nH]c4ncc(Cl)cc34)ncc2F)C1` [Compound 42, (S)-1-(3-((2-(5-chloro-1H-pyrrolo[2,3-b]pyridin-3-yl)-5-fluoropyrimidin-4-ylamino)methyl)piperidin-1-yl)-3,3-dimethylbutan-1-one], for which the IC50 was over 20 µM.
Consider `C[N+](C)(C)CC(=O)N1CCC[C@@H](CNc2nc(-c3c[nH]c4ncc(Cl)cc34)ncc2F)C1` [Compound 43, (S)-2-(3-((2-(5-chloro-1H-pyrrolo[2,3-b]pyridin-3-yl)-5-fluoropyrimidin-4-ylamino)methyl)piperidin-1-yl)-N,N,N-trimethyl-2-oxoethanaminium], for which the IC50 was over 20 µM.
On the same count and under the same terms, next, `CN(C)CC(=O)N1CCC[C@@H](CNc2nc(-c3c[nH]c4ncc(Cl)cc34)ncc2F)C1` [Compound 46, (S)-1-(3-((2-(5-chloro-1H-pyrrolo[2,3-b]pyridin-3-yl)-5-fluoropyrimidin-4-ylamino)methyl)piperidin-1-yl)-2-(dimethylamino)ethanone]: over 20 µM; `O=C(Cn1cnnn1)N1CCC[C@@H](CNc2nc(-c3c[nH]c4ncc(Cl)cc34)ncc2F)C1` [Compound 48, (S)-1-(3-((2-(5-chloro-1H-pyrrolo[2,3-b]pyridin-3-yl)-5-fluoropyrimidin-4-ylamino)methyl)piperidin-1-yl)-2-(1H-tetrazol-1-yl)ethanone]: over 20 µM.
In the case of `O=C(Cn1ccnc1)N1CCC[C@@H](CNc2nc(-c3c[nH]c4ncc(Cl)cc34)ncc2F)C1` [Compound 50, (S)-1-(3-((2-(5-chloro-1H-pyrrolo[2,3-b]pyridin-3-yl)-5-fluoropyrimidin-4-ylamino)methyl)piperidin-1-yl)-2-(1H-imidazol-1-yl)ethanone], the IC50 is over 20 µM.
For `O=C(O)CCCC(=O)N1CCC[C@H](CNc2nc(-c3c[nH]c4ncc(Cl)cc34)ncc2F)C1` [Compound 53, (R)-5-(3-((2-(5-chloro-1H-pyrrolo[2,3-b]pyridin-3-yl)-5-fluoropyrimidin-4-ylamino)methyl)piperidin-1-yl)-5-oxopentanoic acid], the IC50 was 5 to 20 µM.
As for `O=C(O)COCC(=O)N1CCC[C@H](CNc2nc(-c3c[nH]c4ncc(Cl)cc34)ncc2F)C1` [Compound 54, (R)-2-(2-(3-((2-(5-chloro-1H-pyrrolo[2,3-b]pyridin-3-yl)-5-fluoropyrimidin-4-ylamino)methyl)piperidin-1-yl)-2-oxoethoxy)ethanoic acid], the IC50 fell in the range of 5 to 20 µM.
`O=C(c1ccccc1F)N1CCC[C@H](CNc2nc(-c3c[nH]c4ncc(Cl)cc34)ncc2F)C1` [Compound 58, (R)-(3-((2-(5-chloro-1H-pyrrolo[2,3-b]pyridin-3-yl)-5-fluoropyrimidin-4-ylamino)methyl)piperidin-1-yl)(2-fluorophenyl)methanone]: the IC50 is under 5 µM.

The test is the same for the next values; noted with them: Influenza A virus, PR/8, MDCK; read-out: IC50 (mean all).
Regarding `COC(=O)c1ccc(OC(=O)N2CCC[C@H](CNc3nc(-c4c[nH]c5ncc(Cl)cc45)ncc3F)C2)cc1` [Compound 63, (R)-4-(methoxycarbonyl)phenyl 3-((2-(5-chloro-1H-pyrrolo[2,3-b]pyridin-3-yl)-5-fluoropyrimidin-4-ylamino)methyl)piperidine-1-carboxylate], the IC50 was over 20 µM.
In the case of `Cc1ccc(OC(=O)N2CCC[C@H](CNc3nc(-c4c[nH]c5ncc(Cl)cc45)ncc3F)C2)cc1` [Compound 71, (R)-p-tolyl 3-((2-(5-chloro-1H-pyrrolo[2,3-b]pyridin-3-yl)-5-fluoropyrimidin-4-ylamino)methyl)piperidine-1-carboxylate], the IC50 lay within 5 to 20 µM.
In the case of `O=C(Oc1cccc(C(F)(F)F)c1)N1CCC[C@H](CNc2nc(-c3c[nH]c4ncc(Cl)cc34)ncc2F)C1` [Compound 72, (R)-3-(trifluoromethyl)phenyl 3-((2-(5-chloro-1H-pyrrolo[2,3-b]pyridin-3-yl)-5-fluoropyrimidin-4-ylamino)methyl)piperidine-1-carboxylate], the IC50 was in the range of 5 to 20 µM.
As for `O=C(Oc1ccc(F)cc1)N1CCC[C@H](CNc2nc(-c3c[nH]c4ncc(Cl)cc34)ncc2F)C1` [Compound 73, (R)-4-fluorophenyl 3-((2-(5-chloro-1H-pyrrolo[2,3-b]pyridin-3-yl)-5-fluoropyrimidin-4-ylamino)methyl)piperidine-1-carboxylate], the IC50 lay within 5 to 20 µM.

The term IC50 denotes the concentration at which inhibition is half-maximal.
